≈ marks a conversion by molar mass, not a printed value. Counter-ions that a name gives are not always drawn.
Experiments:
[1] = system: Enterococcus faecalis (ATCC29212); assay: Microtitre plate assay, IC90 determination; type: cell-based; conditions: 90% inhibitory concentration for bacterial growth, 37° C., resazurin fluorescence, read-out: IC90 (μg/ml) EFA 29212
Description: (§1) The bacteria used in this study were grown overnight in flasks containing 100 ml Mueller-Hinton Broth (Becton Dickinson—cat. no. 275730) in sterile de-ionized water, with shaking, at 37° C. Stocks (0.5 ml/tube) were stored at −70° C. until use. Bacteria titrations were performed in microtiter plates and colony forming units (CFUs) were determined. In general, an inoculum level of approximately 100 CFUs was used for susceptibility testing.
(§2) Anti Bacterial Susceptibility Testing: IC90 Determination
(§3) Flat-bottom, sterile 96-well plastic microtiter plates were filled with 180 μl of sterile deionized water, supplemented with 0.25% BSA. Subsequently, stock solutions (7.8×final test concentration) of compounds were added in 45 μl volumes in column 2 Serial five-fold dilutions (45 μl in 180 μl) were made directly in the microtiter plates from column 2 to reach column 11. Untreated control samples with (column 1) and without (column 12) inoculum were included in each microtiter plate. Depending on the bacteria type, approximately 10 to 60 CFU per well of bacteria inoculum (100 TCID50), in a volume of 100 μl in 2.8× Mueller-Hinton broth medium, was added to the rows A to H, except column 12. The same volume of broth medium without inoculum was added to column 12 in row A to H. The cultures were incubated at 37° C. for 24 hours under a normal atmosphere (incubator with open air valve and continuous ventilation). At the end of incubation, one day after inoculation, the bacterial growth was quantitated fluorometrically. Therefore resazurin (0.6 mg/ml) was added in a volume of 20 μl to all wells […], and the plates were re-incubated overnight. A change in colour from blue to pink indicated the growth of bacteria.
(§4) The fluorescence was read in a computer-controlled fluorometer (Cytofluor Biosearch) at an excitation wavelength of 530 nm and an emission wavelength of 590 nm. The % growth inhibition achieved by the compounds was calculated according to standard methods. The IC90 (expressed in μg/ml) was defined as the 90% inhibitory concentration for bacterial growth.

[2] = system: Listeria monocytogenes (ATCC49594); assay: Microtitre plate assay, IC90 determination; type: cell-based; conditions: 90% inhibitory concentration for bacterial growth, 37° C., resazurin fluorescence, read-out: IC90 (μg/ml) LMO 49594
Description: as §1, §2, §3, §4

[3] = system: Pseudomonas aeruginosa (ATCC27853); assay: Microtitre plate assay, IC90 determination; type: cell-based; conditions: 90% inhibitory concentration for bacterial growth, 37° C., resazurin fluorescence, read-out: IC90 (μg/ml) PAE 27853
Description: as §1, §2, §3, §4

[4] = system: Staphylococcus aureus (ATCC25923); assay: Microtitre plate assay, IC90 determination; type: cell-based; conditions: 90% inhibitory concentration for bacterial growth, 37° C., resazurin fluorescence, read-out: IC90 (μg/ml) STA 25923
Description: as §1, §2, §3, §4

[5] = system: Staphylococcus aureus (ATCC29213); assay: Microtitre plate assay, IC90 determination; type: cell-based; conditions: 90% inhibitory concentration for bacterial growth, 37° C., resazurin fluorescence, read-out: IC90 (μg/ml) STA 29213
Description: as §1, §2, §3, §4

[6] = system: Streptococcus mutans (ATCC33402); assay: Microtitre plate assay, IC90 determination; type: cell-based; conditions: 90% inhibitory concentration for bacterial growth, 37° C., resazurin fluorescence, read-out: IC90 (μg/ml) SMU 33402
Description: as §1, §2, §3, §4

[7] = system: Streptococcus pneumoniae (ATCC6305); assay: Microtitre plate assay, IC90 determination; type: cell-based; conditions: 90% inhibitory concentration for bacterial growth, 37° C., resazurin fluorescence, read-out: IC90 (μg/ml) SPN 6305
Description: as §1, §2, §3, §4

[8] = system: Streptococcus pyogens (ATCC8668); assay: Microtitre plate assay, IC90 determination; type: cell-based; conditions: 90% inhibitory concentration for bacterial growth, 37° C., resazurin fluorescence, read-out: IC90 (μg/ml) SPY 8668
Description: as §1, §2, §3, §4

[9] = system: methicilline resistant Staphylococcus aureus (MRSA) (a clinical isolate from the University of Antwerp); assay: Microtitre plate assay, IC90 determination; type: cell-based; conditions: 90% inhibitory concentration for bacterial growth, 37° C., resazurin fluorescence, read-out: IC90 (μg/ml) STA RMETHIC
Description: as §1, §2, §3, §4

[10] = system: Bacillus subtilis (ATCC43639); assay: Microtitre plate assay, IC90 determination; type: cell-based; conditions: 90% inhibitory concentration for bacterial growth, 37° C., resazurin fluorescence, read-out: IC90 (μg/ml) BSU 43639
Description: as §1, §2, §3, §4

[11] = system: Enterococcus faecalis (ATCC14506); assay: Microtitre plate assay, IC90 determination; type: cell-based; conditions: 90% inhibitory concentration for bacterial growth, 37° C., resazurin fluorescence, read-out: IC90 (μg/ml) EFA 14506
Description: as §1, §2, §3, §4

[12] = system: Staphylococcus aureus (ATCC43300); assay: Microtitre plate assay, IC90 determination; type: cell-based; conditions: 90% inhibitory concentration for bacterial growth, 37° C., resazurin fluorescence, read-out: IC90 (μg/ml) STA 43300
Description: as §1, §2, §3, §4

SMILES	IC90 [1] [µg/mL]	IC90 [2] [µg/mL]	IC90 [3] [µg/mL]	IC90 [4] [µg/mL]	IC90 [5] [µg/mL]	IC90 [6] [µg/mL]	IC90 [7] [µg/mL]	IC90 [8] [µg/mL]	IC90 [9] [µg/mL]	melting point [°C]	IC90 [10] [µg/mL]	IC90 [11] [µg/mL]	IC90 [12] [µg/mL]
CN(C)CCC(O)(c1cc(F)cc(F)c1)c1cc(Br)cc2cc(-c3ccccc3)c(-n3ccnc3)nc12 (centres unmarked) [Compound 22]	14.2 (≈ 25.2 µM)	14.2 (≈ 25.2 µM)	14.2 (≈ 25.2 µM)	12.6 (≈ 22.4 µM)	14.2 (≈ 25.2 µM)	11.2 (≈ 19.9 µM)	12.6 (≈ 22.4 µM)	11.2 (≈ 19.9 µM)	14.2 (≈ 25.2 µM)	136			
CN(C)CCC(O)(c1ccccc1)c1cc(Br)cc2cc(Cc3ccccc3)c(OCCN3CCCCC3)nc12 (centres unmarked) [Compound 48]	60.3 (≈ 100 µM)	60.3 (≈ 100 µM)	47.9 (≈ 79.5 µM)	53.7 (≈ 89.1 µM)	53.7 (≈ 89.1 µM)	47.9 (≈ 79.5 µM)	60.3 (≈ 100 µM)	47.9 (≈ 79.5 µM)	60.3 (≈ 100 µM)	131	60.3 (≈ 100 µM)		
CN(C)CCC(O)(c1cccc2ccccc12)c1cc(Br)cc2cc(Cc3ccccc3)c(N3CCN(c4n[nH]c5ccccc45)CC3)nc12 (centres unmarked) [Compound 26]	3.6 (≈ 4.96 µM)	3.6 (≈ 4.96 µM)	2.9 (≈ 4 µM)	7.3 (≈ 10.1 µM)	16.3 (≈ 22.5 µM)	2.9 (≈ 4 µM)	3.6 (≈ 4.96 µM)	2.9 (≈ 4 µM)	18.2 (≈ 25.1 µM)		14.5 (≈ 20 µM)	14.5 (≈ 20 µM)	
COc1nc2c(C(O)(CCN(C)C)c3cc(F)cc(F)c3)cc(Br)cc2cc1-c1ccccc1 (centres unmarked) [Compound 9]	10.5 (≈ 19.9 µM)	10.5 (≈ 19.9 µM)	10.5 (≈ 19.9 µM)	11.8 (≈ 22.4 µM)	10.5 (≈ 19.9 µM)	10.5 (≈ 19.9 µM)	13.3 (≈ 25.2 µM)	10.5 (≈ 19.9 µM)	11.8 (≈ 22.4 µM)			11.8 (≈ 22.4 µM)	13.3 (≈ 25.2 µM)
CN(C)CCC(O)(c1cccs1)c1cc(Br)cc2cc(Cc3ccccc3)c(N(C)C)nc12 (centres unmarked) [Compound 46]	10.5 (≈ 20 µM)	10.5 (≈ 20 µM)	10.5 (≈ 20 µM)	11.7 (≈ 22.3 µM)	10.5 (≈ 20 µM)	10.5 (≈ 20 µM)	10.5 (≈ 20 µM)	10.5 (≈ 20 µM)	9.3 (≈ 17.7 µM)		10.5 (≈ 20 µM)	10.5 (≈ 20 µM)	10.5 (≈ 20 µM)
COc1nc2c(C(O)(CCN(C)C)c3cc(F)cc(F)c3)cc(-c3cccnc3)cc2cc1-c1ccccc1 (centres unmarked) (as salt: salt) [Compound 64]										156			
COc1nc2cccc(C(O)(CCN(C)C)c3cccc4ccccc34)c2cc1-c1ccccc1 (centres unmarked) [Compound 2]	11.6 (≈ 25.1 µM)	11.6 (≈ 25.1 µM)	9.2 (≈ 19.9 µM)	11.6 (≈ 25.1 µM)	9.2 (≈ 19.9 µM)	9.2 (≈ 19.9 µM)	11.6 (≈ 25.1 µM)	9.2 (≈ 19.9 µM)	11.6 (≈ 25.1 µM)		9.2 (≈ 19.9 µM)	8.2 (≈ 17.7 µM)	9.2 (≈ 19.9 µM)
CN(C)CCC(O)(c1cccc2ccccc12)c1cc(Br)cc2cc(-c3ccccc3)c(=O)[nH]c12 (centres unmarked) [Compound 69]	13.3 (≈ 25.2 µM)	41.9 (≈ 79.4 µM)	13.3 (≈ 25.2 µM)	52.8 (≈ 100 µM)	13.3 (≈ 25.2 µM)		13.3 (≈ 25.2 µM)	13.3 (≈ 25.2 µM)	52.8 (≈ 100 µM)	190	52.8 (≈ 100 µM)		
CN(C)CCC(O)(c1cc(F)cc(F)c1)c1cc(Br)cc2cc(Cc3ccccc3)c(-n3ccnc3)nc12 (centres unmarked) [Compound 19]	14.5 (≈ 25.1 µM)	14.5 (≈ 25.1 µM)	14.5 (≈ 25.1 µM)	12.9 (≈ 22.3 µM)	14.5 (≈ 25.1 µM)	11.5 (≈ 19.9 µM)	14.5 (≈ 25.1 µM)	11.5 (≈ 19.9 µM)	14.5 (≈ 25.1 µM)		14.5 (≈ 25.1 µM)		11.5 (≈ 19.9 µM)
COc1nc2c(C(O)(CCN(C)C)c3cc(F)cc(F)c3)cc(Br)cc2cc1Cc1ccccc1 (centres unmarked) [Compound 12]	13.6 (≈ 25.1 µM)	13.6 (≈ 25.1 µM)	10.8 (≈ 19.9 µM)	12.1 (≈ 22.3 µM)	10.8 (≈ 19.9 µM)	10.8 (≈ 19.9 µM)	12.1 (≈ 22.3 µM)	10.8 (≈ 19.9 µM)	12.1 (≈ 22.3 µM)		13.6 (≈ 25.1 µM)	10.8 (≈ 19.9 µM)	10.8 (≈ 19.9 µM)

Reference: patent US8017606B2, “Quinoline derivatives as antibacterial agents” (Janssen Pharmaceutica NV, priority 2005, dated 2011)
